For one assay, the target named is DGKα (Homo sapiens (Human), UniProt P23743). In words: In vitro DGKα inhibition assay (ADP-Glo). The class given is biochemical. To be noted: His-tagged human recombinant enzyme, 0.1 nM DGKα, 50 μM ATP, 20 μM DLG, 90 minute incubation. An outline of the steps: (§1)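 His-tagged human DGKα (0.1 nM, 50 μM ATP) or DGKζ (0.4 nM, 30 μM ATP), each with 20 μM DLG, in Tris pH 7.5 buffer with CHAPS, Mg2+, Ca2+.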

The next assay concerns the target DGKζ (Homo sapiens (Human), UniProt Q13574). In words: In vitro DGKζ inhibition assay (ADP-Glo). The following applies: His-tagged human recombinant enzyme, 0.4 nM DGK, 30 μM ATP, 20 μM DLG, 90 minute incubation. In kind it is biochemical. The essentials: as §1
Background: In ADP-Glo the light output rises with the ADP produced.

The term IC50 denotes the concentration that inhibits the measured activity by half.

Chain of DGKα (P23743 whole entry): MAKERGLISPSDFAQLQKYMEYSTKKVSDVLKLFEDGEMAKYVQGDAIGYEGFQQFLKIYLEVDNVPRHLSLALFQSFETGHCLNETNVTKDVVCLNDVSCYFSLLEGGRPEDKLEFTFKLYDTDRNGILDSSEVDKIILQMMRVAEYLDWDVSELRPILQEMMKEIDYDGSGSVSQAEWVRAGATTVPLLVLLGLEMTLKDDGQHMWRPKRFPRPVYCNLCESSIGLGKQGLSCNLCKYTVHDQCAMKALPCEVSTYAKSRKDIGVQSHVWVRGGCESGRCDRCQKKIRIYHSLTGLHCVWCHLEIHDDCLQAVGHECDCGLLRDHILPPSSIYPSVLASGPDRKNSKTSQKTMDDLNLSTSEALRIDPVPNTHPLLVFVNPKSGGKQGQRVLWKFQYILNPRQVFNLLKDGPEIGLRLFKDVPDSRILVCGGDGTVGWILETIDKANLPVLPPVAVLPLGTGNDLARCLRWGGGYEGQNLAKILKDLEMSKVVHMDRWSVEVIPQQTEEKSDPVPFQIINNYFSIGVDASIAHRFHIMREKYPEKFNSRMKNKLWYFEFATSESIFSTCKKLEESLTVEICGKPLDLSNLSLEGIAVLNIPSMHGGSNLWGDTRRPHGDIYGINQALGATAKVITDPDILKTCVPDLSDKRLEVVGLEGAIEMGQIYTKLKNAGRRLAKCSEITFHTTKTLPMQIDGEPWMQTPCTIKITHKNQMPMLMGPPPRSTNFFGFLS
Chain of DGKζ (Q13574 whole entry): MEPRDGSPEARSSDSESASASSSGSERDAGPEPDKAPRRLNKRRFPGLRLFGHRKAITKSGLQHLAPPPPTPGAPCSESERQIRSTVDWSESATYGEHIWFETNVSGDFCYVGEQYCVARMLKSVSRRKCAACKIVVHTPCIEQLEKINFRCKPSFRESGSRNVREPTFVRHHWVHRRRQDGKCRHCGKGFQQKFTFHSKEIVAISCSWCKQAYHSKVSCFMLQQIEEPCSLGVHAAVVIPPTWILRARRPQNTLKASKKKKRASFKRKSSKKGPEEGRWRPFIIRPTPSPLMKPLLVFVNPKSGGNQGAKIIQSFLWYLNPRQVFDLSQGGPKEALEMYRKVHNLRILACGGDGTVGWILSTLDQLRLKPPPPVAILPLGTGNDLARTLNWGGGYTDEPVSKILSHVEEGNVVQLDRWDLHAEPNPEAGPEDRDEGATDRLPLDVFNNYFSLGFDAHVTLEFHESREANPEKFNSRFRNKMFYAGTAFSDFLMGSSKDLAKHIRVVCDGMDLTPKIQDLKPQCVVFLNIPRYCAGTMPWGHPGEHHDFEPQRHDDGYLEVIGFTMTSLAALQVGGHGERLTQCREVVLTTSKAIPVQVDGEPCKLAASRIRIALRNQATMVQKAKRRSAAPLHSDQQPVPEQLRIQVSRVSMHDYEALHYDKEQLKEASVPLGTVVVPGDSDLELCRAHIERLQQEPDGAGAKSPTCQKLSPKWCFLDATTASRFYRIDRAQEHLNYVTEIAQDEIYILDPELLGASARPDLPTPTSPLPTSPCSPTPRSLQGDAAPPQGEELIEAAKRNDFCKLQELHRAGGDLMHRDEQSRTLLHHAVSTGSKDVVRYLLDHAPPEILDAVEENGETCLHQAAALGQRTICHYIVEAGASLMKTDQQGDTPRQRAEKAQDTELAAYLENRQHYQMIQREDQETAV

Turning to `Cc1cc(C(C2CC(F)(F)C2)N2C[C@H](C)N(c3nc4nncn4c4c3nc(C)n4C[C@@H]3CCCO3)C[C@H]2C)ccc1C(F)(F)F` (stereo partly drawn) [Example 55, 4-((2S,5R)-4-((3,3-Difluorocyclobutyl)(3-methyl-4-(trifluoromethyl)phenyl)methyl)-2,5-dimethylpiperazin-1-yl)-2-methyl-1-(((S)-tetrahydrofuran-2-yl)methyl)-1H-[1,2,4]triazolo[3,4-b]purine], the IC50 at DGKα and at DGKζ was not above 20 nM each time.
In the case of `Cc1nc2c(N3C[C@@H](C)N(C(c4cc(F)c(C(F)(F)F)cc4F)C4CC(F)(F)C4)C[C@@H]3C)nc3nncn3c2n1C[C@@H]1CCCO1` (stereo partly drawn) [Example 56, 4-((2S,5R)-4-((2,5-Difluoro-4-(trifluoromethyl)phenyl)(3,3-difluorocyclobutyl)methyl)-2,5-dimethylpiperazin-1-yl)-2-methyl-1-(((S)-tetrahydrofuran-2-yl)methyl)-1H-[1,2,4]triazolo[3,4-b]purine], the IC50 at DGKα and at DGKζ was not above 20 nM throughout.
Turning to `Cc1nc2c(N3C[C@@H](C)N(C(c4ccc(F)c(Cl)c4F)C4CC(F)(F)C4)C[C@@H]3C)nc3nncn3c2n1C[C@@H]1CCCO1` (stereo partly drawn) [Example 57, 4-((2S,5R)-4-((3-Chloro-2,4-difluorophenyl)(3,3-difluorocyclobutyl)methyl)-2,5-dimethylpiperazin-1-yl)-2-methyl-1-(((S)-tetrahydrofuran-2-yl)methyl)-1H-[1,2,4]triazolo[3,4-b]purine], the IC50 on DGKα and at DGKζ was not above 20 nM throughout.
For `Cc1nc2c(N3C[C@@H](C)N(C(c4ccc(C(F)(F)F)c(Cl)c4)C4CC(F)(F)C4)C[C@@H]3C)nc3nncn3c2n1C[C@@H]1CCCO1` (stereo partly drawn) [Example 58, 4-((2S,5R)-4-((3-Chloro-4-(trifluoromethyl)phenyl)(3,3-difluorocyclobutyl)methyl)-2,5-dimethylpiperazin-1-yl)-2-methyl-1-(((S)-tetrahydrofuran-2-yl)methyl)-1H-[1,2,4]triazolo[3,4-b]purine], the IC50 on DGKα and on DGKζ was not above 20 nM throughout.
As to `Cc1nc2c(N3C[C@@H](C)N(C(c4ccc(Cl)c(C(F)(F)F)c4)C4CC(F)(F)C4)C[C@@H]3C)nc3nncn3c2n1C[C@@H]1CCCO1` (stereo partly drawn) [Example 59, 4-((2S,5R)-4-((4-Chloro-3-(trifluoromethyl)phenyl)(3,3-difluorocyclobutyl)methyl)-2,5-dimethylpiperazin-1-yl)-2-methyl-1-(((S)-tetrahydrofuran-2-yl)methyl)-1H-[1,2,4]triazolo[3,4-b]purine], the IC50 on DGKα and at DGKζ was not above 20 nM throughout.
For `Cc1nc2c(N3C[C@@H](C)N(C(c4ccc(Cl)cc4)C4CC(F)(F)C4)C[C@@H]3C)nc3nncn3c2n1C[C@@H]1CCCO1` (stereo partly drawn) [Example 60, 4-((2S,5R)-4-((4-Chlorophenyl)(3,3-difluorocyclobutyl)methyl)-2,5-dimethylpiperazin-1-yl)-2-methyl-1-(((S)-tetrahydrofuran-2-yl)methyl)-1H-[1,2,4]triazolo[3,4-b]purine], the IC50 on DGKα and on DGKζ was not above 20 nM each time.
On to `Cc1nc2c(N3C[C@@H](C)N(C(c4ccc(Br)cc4)C4CC(F)(F)C4)C[C@@H]3C)nc3nncn3c2n1C[C@@H]1CCCO1` (stereo partly drawn) [Example 61, 4-((2S,5R)-4-((4-Bromophenyl)(3,3-difluorocyclobutyl)methyl)-2,5-dimethylpiperazin-1-yl)-2-methyl-1-(((S)-tetrahydrofuran-2-yl)methyl)-1H-[1,2,4]triazolo[3,4-b]purine], for which the IC50 at DGKα and on DGKζ was not above 20 nM in each case.
Regarding `Cc1nc2c(N3C[C@@H](C)N(C(c4ccc(F)c(Br)c4)C4CC(F)(F)C4)C[C@@H]3C)nc3nncn3c2n1C[C@@H]1CCCO1` (stereo partly drawn) [Example 62, 4-((2S,5R)-4-((3-Bromo-4-fluorophenyl)(3,3-difluorocyclobutyl)methyl)-2,5-dimethylpiperazin-1-yl)-2-methyl-1-(((S)-tetrahydrofuran-2-yl)methyl)-1H-[1,2,4]triazolo[3,4-b]purine], the IC50 at DGKα and on DGKζ was not above 20 nM in each case.
For `Cc1nc2c(N3C[C@@H](C)N(C(c4ccc(Br)c(F)c4)C4CC(F)(F)C4)C[C@@H]3C)nc3nncn3c2n1C[C@@H]1CCCO1` (stereo partly drawn) [Example 63, 4-((2S,5R)-4-((4-Bromo-3-fluorophenyl)(3,3-difluorocyclobutyl)methyl)-2,5-dimethylpiperazin-1-yl)-2-methyl-1-(((S)-tetrahydrofuran-2-yl)methyl)-1H-[1,2,4]triazolo[3,4-b]purine], the 50% inhibitory concentration (IC50) at DGKα and at DGKζ was not above 20 nM throughout.
As to `C[C@@H]1CN(c2nc3nncn3c3c2ncn3CCN(C)C)[C@@H](C)CN1C(c1ccc(Br)cc1)C1CC(F)(F)C1` (stereo partly drawn) [Example 65, 2-(4-((2S,5R)-4-((4-Bromophenyl)(3,3-difluorocyclobutyl)methyl)-2,5-dimethylpiperazin-1-yl)-1H-[1,2,4]triazolo[3,4-b]purin-1-yl)-N,N-dimethylethan-1-amine], the IC50 at DGKα and on DGKζ was not above 20 nM throughout.
Turning to `CC[C@@H]1CN(c2nc3nncn3c3c2ncn3CCN(C)C)[C@@H](C)CN1C(c1ccc(Cl)cc1)C1CC(F)(F)C1` (stereo partly drawn) [Example 66, 2-(4-((2S,5R)-4-((4-Chlorophenyl)(3,3-difluorocyclobutyl)methyl)-5-ethyl-2-methylpiperazin-1-yl)-1H-[1,2,4]triazolo[3,4-b]purin-1-yl)-N,N-dimethylethan-1-amine], the IC50 on DGKα and at DGKζ was not above 20 nM in each case.
On to `Cc1nc2c(N3C[C@@H](C)N([C@H](c4ccc(C(F)(F)F)cc4)C(C)C)C[C@@H]3C)nc3nncn3c2n1C[C@@H]1CCCO1` [Example 67, 4-((2S,5R)-2,5-Dimethyl-4-((S)-2-methyl-1-(4-(trifluoromethyl)phenyl)propyl)piperazin-1-yl)-2-methyl-1-(((S)-tetrahydrofuran-2-yl)methyl)-1H-[1,2,4]triazolo[3,4-b]purine], for which the IC50 on DGKα and at DGKζ was not above 20 nM in each case.
With `Cc1nc2c(N3C[C@@H](C)N([C@@H](c4ccc(C(F)(F)F)cc4)C(C)C)C[C@@H]3C)nc3nncn3c2n1C[C@@H]1CCCO1` [Example 68, 4-((2S,5R)-2,5-dimethyl-4-((R)-2-methyl-1-(4-(trifluoromethyl)phenyl)propyl)piperazin-1-yl)-2-methyl-1-(((S)-tetrahydrofuran-2-yl)methyl)-1H-[1,2,4]triazolo[3,4-b]purine], the IC50 at DGKα and at DGKζ was not above 20 nM each time.
Turning to `Cc1nc2c(N3C[C@@H](C)N([C@H](c4cccc(C(F)(F)F)c4)C(C)C)C[C@@H]3C)nc3nncn3c2n1C[C@@H]1CCCO1` [Example 69, 4-((2S,5R)-2,5-Dimethyl-4-((S)-2-methyl-1-(3-(trifluoromethyl)phenyl)propyl)piperazin-1-yl)-2-methyl-1-(((S)-tetrahydrofuran-2-yl)methyl)-1H-[1,2,4]triazolo[3,4-b]purine], the IC50 at DGKα and on DGKζ was not above 20 nM in each case.
Take `Cc1nc2c(N3C[C@@H](C)N([C@@H](c4cccc(C(F)(F)F)c4)C(C)C)C[C@@H]3C)nc3nncn3c2n1C[C@@H]1CCCO1` [Example 70, 4-((2S,5R)-2,5-dimethyl-4-((R)-2-methyl-1-(3-(trifluoromethyl)phenyl)propyl)piperazin-1-yl)-2-methyl-1-(((S)-tetrahydrofuran-2-yl)methyl)-1H-[1,2,4]triazolo[3,4-b]purine]: the IC50 at DGKα and at DGKζ was not above 20 nM in each case.
In the case of `Cc1nc2c(N3C[C@@H](C)N([C@H](c4ccc(C(F)(F)F)cc4F)C(C)C)C[C@@H]3C)nc3nncn3c2n1C[C@@H]1CCCO1` [Example 71, 4-((2S,5R)-4-((S)-1-(2-Fluoro-4-(trifluoromethyl)phenyl)-2-methylpropyl)-2,5-dimethylpiperazin-1-yl)-2-methyl-1-(((S)-tetrahydrofuran-2-yl)methyl)-1H-[1,2,4]triazolo[3,4-b]purine], the IC50 at DGKα and at DGKζ was not above 20 nM in each case.
For `Cc1nc2c(N3C[C@@H](C)N([C@@H](c4ccc(C(F)(F)F)cc4F)C(C)C)C[C@@H]3C)nc3nncn3c2n1C[C@@H]1CCCO1` [Example 72, 4-((2S,5R)-4-((R)-1-(2-fluoro-4-(trifluoromethyl)phenyl)-2-methylpropyl)-2,5-dimethylpiperazin-1-yl)-2-methyl-1-(((S)-tetrahydrofuran-2-yl)methyl)-1H-[1,2,4]triazolo[3,4-b]purine], the IC50 on DGKα and on DGKζ was not above 20 nM throughout.
With `Cc1nc2c(N3C[C@@H](C)N([C@H](c4ccc(C(F)F)cc4)C(C)C)C[C@@H]3C)nc3nncn3c2n1C[C@@H]1CCCO1` [Example 73, 4-((2S,5R)-4-((S)-1-(4-(Difluoromethyl)phenyl)-2-methylpropyl)-2,5-dimethylpiperazin-1-yl)-2-methyl-1-(((S)-tetrahydrofuran-2-yl)methyl)-1H-[1,2,4]triazolo[3,4-b]purine], the IC50 at DGKα and on DGKζ was not above 20 nM in each case.
On to `Cc1nc2c(N3C[C@@H](C)N([C@@H](c4ccc(C(F)F)cc4)C(C)C)C[C@@H]3C)nc3nncn3c2n1C[C@@H]1CCCO1` [Example 74, 4-((2S,5R)-4-((R)-1-(4-(difluoromethyl)phenyl)-2-methylpropyl)-2,5-dimethylpiperazin-1-yl)-2-methyl-1-(((S)-tetrahydrofuran-2-yl)methyl)-1H-[1,2,4]triazolo[3,4-b]purine], for which the IC50 on DGKα and at DGKζ was not above 20 nM in each case.
With `Cc1nc2c(N3C[C@@H](C)N([C@H](c4ccc(OC(F)F)cc4F)C(C)C)C[C@@H]3C)nc3nncn3c2n1C[C@@H]1CCCO1` [Example 75, 4-((2S,5R)-4-((S)-1-(4-(Difluoromethoxy)-2-fluorophenyl)-2-methylpropyl)-2,5-dimethylpiperazin-1-yl)-2-methyl-1-(((S)-tetrahydrofuran-2-yl)methyl)-1H-[1,2,4]triazolo[3,4-b]purine], the IC50 on DGKα and on DGKζ was not above 20 nM throughout.

The values above are taken from US20230399342A1 (Incyte Corporation, priority 2022, published 2023).
